Like-named read-outs stand apart in the source and are kept apart here.

One data set deals with MHCC97L cells. The data set can be described thus: MTT cell viability assay and drug interaction analysis. The data set is classed as cell-based, human. The following applies: single drug. For orientation: Tetrazolium dyes change colour on reduction, which living cells bring about.
A further data set deals with NMDAR subunits. The following applies: cited from earlier work.
The subject of a further data set is pancreatic cancer cells. The following applies: cited from earlier work.
In data set [1] the test system is HCC patients. To be noted: phase II, cited from earlier work.
Data set [2] concerns HCC patients. To be noted: phase III BRISK-PS, secondary treatment; cited from earlier work.
Data set [3] concerns HCC patients. To be noted: phase III, first line; cited from earlier work.
Another data set relates to advanced HCC patients. The following applies: 28 patients; cited from earlier work.
Data set [4] relates to HCC patients. The following applies: single arm phase II; cited from earlier work.
Data set [5] concerns HCC patients. The following applies: phase III versus sorafenib; cited from earlier work.

For the compound `C[C@]12N[C@H](Cc3ccccc31)c1ccccc12` [MK-801, Dizocilpine (MK-801)], in the data set with MHCC97L cells, the “HCC growth, NMDAR inhibitor alone” value is given as “did not significantly suppress”. In the data set with NMDAR subunits, the NMDAR subunit selectivity entry is “blocks all NMDAR subunits in a non-selective manner”; the “toxicity / safety as therapeutic agent” value is “poses high toxicity and is less tolerated”. In addition, the “tumor growth and invasiveness of pancreatic cancer cells” value in the data set on pancreatic cancer cells is “reduced tumor growth and invasiveness”.
In the case of `Cc1cc2c(F)c(Oc3ncnn4cc(OC[C@@H](C)O)c(C)c34)ccc2[nH]1` [brivanib], the median overall survival in the data set on HCC patients [1] (first line) is reported as 10 months. The median overall survival in the data set on HCC patients [1] (second line) is 9.5 months. In addition, the “median length of overall survival” value with HCC patients [2] was 9.4 months. For the same compound, in the data set on HCC patients [3], the Median survival is listed as 9.5 months and the discontinuation rate is 43%.
Take `CO[C@H]1C[C@@H]2CC[C@@H](C)[C@@](O)(O2)C(=O)C(=O)N2CCCC[C@H]2C(=O)O[C@H]([C@H](C)C[C@@H]2CC[C@@H](OCCO)[C@H](OC)C2)CC(=O)[C@H](C)/C=C(\C)[C@@H](O)[C@@H](OC)C(=O)[C@H](C)C[C@H](C)/C=C/C=C/C=C/1C` [everolimus]: in the data set with advanced HCC patients, the “median progression free survival” value is reported as 3.8 months and the overall survival is listed as 8.4 months.
`Cc1ccc(F)c(NC(=O)Nc2ccc(-c3cccc4[nH]nc(N)c34)cc2)c1` [linifanib]: the safety profile result in the data set on HCC patients [4] was “acceptable safety profile”.
Turning to `CCN(CC)CCNC(=O)c1c(C)[nH]c(/C=C2\C(=O)Nc3ccc(F)cc32)c1C` [sunitinib], in the data set on HCC patients [5], the trial outcome was “terminated early due to increased side effects and futility concerns”.
